Data on 3 molecules can be found in patent US6723331B1, “Termite-controlling agent and a controlling method thereof” (Sumitomo Chemical Company, Limited, priority 1992, dated 2004).

For the assay, the system named is Formosan subterranean termites (Coptotermes formosanus). The assay can be described thus: whole plant or invertebrate. The note with it: soil, 72 h. On the procedure:
The emulsifiable concentrates obtained in Formulation Examples 1, 2 and 3 were each diluted with distilled water to a predetermined concentration. Five milliliters of every dilute chemicals solution was added to 100 g of sandy loam previously heat-sterilized, and the mixture was thoroughly mixed to prepare a test soil. This test soil was stored at 40° C. under a dark condition. After storage for a predetermined period of time (2 months and 3 months), about 15 g of the test soil was put in a plastic dish (diameter, 9 cm; height, 2 cm) and wetted. Twenty workers of Formosan subterranean termites (Coptotermes formosanus) were liberated in the plastic dish. After the dish was kept at room temperature for 3 days, the condition of the termites was observed.
For comparison, the same test was also carried out using each of fenvalerate and MGK 264.
The same test as in Test Example 1 was carried out using the emulsifiable concentrates obtained in Formulation Examples 6 and 7.
For comparison, the same test was also carried out using each of permethrin and MGK 264.

The mark [1] stands for this setting: read-out: Mortality (%) after 3 days.

By mortality is commonly meant the percentage killed.

SMILES strings stand for the structures. Read-outs that look alike come from different tables or passages of the source.

For `CC(C)C(C(=O)OC(C#N)c1cccc(Oc2ccccc2)c1)c1ccc(Cl)cc1` (stereo not drawn) [Fenvalerate, α-cyano-3-phenoxy-benzyl-2-(4-chlorophenyl)-3-methylbutyrate], the mortality at 125 ppm was found to be 0% (read-out: Mortality (%) after 3 days, 125 ppm, treated soil stored 2 months at 40° C., Table 1) and 0% (read-out: Mortality (%) after 3 days, 125 ppm, treated soil stored 3 months at 40° C., Table 1). Besides, the mortality at 250 ppm was found to be 0% (read-out: Mortality (%) after 3 days, 250 ppm, treated soil stored 2 months at 40° C., Table 1) and 0% (read-out: Mortality (%) after 3 days, 250 ppm, treated soil stored 3 months at 40° C., Table 1).

Turning to `CCCCC(CC)CN1C(=O)C2C3C=CC(C3)C2C1=O` (centres unmarked) [MGK 264, N-(2-ethylhexyl)bicyclo[2.2.1]hept-5-en-2,3-dicarboximide], under setting [1], the mortality at 500 ppm turned out to be 0% and the mortality at 1000 ppm is 0%.

Consider `CC1(C)C(C=C(Cl)Cl)C1C(=O)OCc1cccc(Oc2ccccc2)c1` (centres unmarked) [Permethrin, 3-phenoxybenzyl 3-(2,2-dichlorovinyl)-2,2-dimethylcyclopropanecarboxylate], for which the mortality at 125 ppm is 80% (read-out: Mortality (%) after 3 days, 125 ppm, treated soil stored 2 months at 40° C., Table 2) and 30% (read-out: Mortality (%) after 3 days, 125 ppm, treated soil stored 3 months at 40° C., Table 2).
